Experimental data from patent publication US8063053B2, “1-(arylsulfonyl)-4-(piperazin-1-yl)-1H-benzimidazoles as 5-hydroxytryptamine-6 ligands” (Wyeth LLC, priority 2008, dated 2011).

Target: T1, serotonin 5-HT6 receptor subtype (Homo sapiens, UniProt P50406)
T1 construct: host or cells: CHO-Dukx-A2 cells, clone 50-7
Experiment: 5-HT6 binding affinity ([3H]-LSD SPA binding)
Details: read-out: 5-HT6 binding Ki

T1 sequence (P50406 whole entry): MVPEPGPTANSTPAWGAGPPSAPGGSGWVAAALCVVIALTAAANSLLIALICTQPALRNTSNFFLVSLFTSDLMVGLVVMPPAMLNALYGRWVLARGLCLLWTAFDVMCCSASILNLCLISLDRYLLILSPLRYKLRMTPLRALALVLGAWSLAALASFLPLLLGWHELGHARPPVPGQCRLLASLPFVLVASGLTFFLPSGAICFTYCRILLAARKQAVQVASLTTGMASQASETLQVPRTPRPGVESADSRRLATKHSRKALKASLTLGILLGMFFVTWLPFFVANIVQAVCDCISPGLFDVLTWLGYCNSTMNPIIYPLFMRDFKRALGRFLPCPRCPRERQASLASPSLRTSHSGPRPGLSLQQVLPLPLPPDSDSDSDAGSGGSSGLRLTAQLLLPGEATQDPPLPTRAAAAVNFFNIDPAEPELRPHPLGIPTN

Row | Compound | Ki
1 | CCOc1ccccc1S(=O)(=O)n1c(C)nc2c(N3CCNCC3)cccc21 [Example 89, 1-[(2-ethoxyphenyl)sulfonyl]-2-methyl-4-piperazin-1-yl-1H-benzimidazole] | 0.761 nM
2 | COc1cc(C)c(Cl)cc1S(=O)(=O)n1cnc2c(N3CCNCC3)cccc21 [Example 90, 1-[(5-chloro-2-methoxy-4-methylphenyl)sulfonyl]-4-piperazin-1-yl-1H-benzimidazole] | 12.9 nM
3 | Cc1nc2c(N3CCNC(C)C3)cccc2n1S(=O)(=O)c1ccccc1 (stereo not shown) [Example 91, 2-methyl-4-(3-methylpiperazin-1-yl)-1-(phenylsulfonyl)-1H-benzimidazole] | 2.44 nM
4 | Cc1nc2c(N3CCNC(C)C3)cccc2n1S(=O)(=O)c1cccc2ccccc12 (stereo not shown) [Example 92, 2-methyl-4-(3-methylpiperazin-1-yl)-1-(naphthalen-1-ylsulfonyl)-1H-benzimidazole] | 0.623 nM
5 | Cc1nc2c(N3CCNC(C)C3)cccc2n1S(=O)(=O)c1ccccc1Cl (stereo not shown) [Example 93, 1-[(2-chlorophenyl)sulfonyl]-2-methyl-4-(3-methylpiperazin-1-yl)-1H-benzimidazole] | 0.488 nM
6 | Cc1nc2c(N3CCNC(C)C3)cccc2n1S(=O)(=O)c1cccc(F)c1 (stereo not shown) [Example 94, 1-[(3-fluorophenyl)sulfonyl]-2-methyl-4-(3-methylpiperazin-1-yl)-1H-benzimidazole] | 1.07 nM
7 | Cc1c(Cl)cccc1S(=O)(=O)n1c(C)nc2c(N3CCNC(C)C3)cccc21 (stereo not shown) [Example 95, 1-[(3-chloro-2-methylphenyl)sulfonyl]-2-methyl-4-(3-methylpiperazin-1-yl)-1H-benzimidazole] | 0.394 nM
8 | Cc1nc2c(N3C[C@@H](C)N[C@@H](C)C3)cccc2n1S(=O)(=O)c1ccccc1 [Example 96, 4-[(3R,5S)-3,5-dimethylpiperazin-1-yl]-2-methyl-1-(phenylsulfonyl)-1H-benzimidazole] | 27.2 nM
9 | Cc1nc2c(N3C[C@@H](C)N[C@@H](C)C3)cccc2n1S(=O)(=O)c1cccc2ccccc12 [Example 97, 4-[(3R,5S)-3,5-dimethylpiperazin-1-yl]-2-methyl-1-(naphthalen-1-ylsulfonyl)-1H-benzimidazole] | 3.8 nM
10 | Cc1nc2c(N3C[C@@H](C)N[C@@H](C)C3)cccc2n1S(=O)(=O)c1ccccc1Cl [Example 98, 1-[(2-chlorophenyl)sulfonyl]-4-[(3R,5S)-3,5-dimethylpiperazin-1-yl]-2-methyl-1H-benzimidazole] | 3.5 nM
11 | Cc1nc2c(N3C[C@@H](C)N[C@@H](C)C3)cccc2n1S(=O)(=O)c1cccc(F)c1 [Example 99, 4-[(3R,5S)-3,5-dimethylpiperazin-1-yl]-1-[(3-fluorophenyl)sulfonyl]-2-methyl-1H-benzimidazole] | 12.9 nM
12 | Cc1c(Cl)cccc1S(=O)(=O)n1c(C)nc2c(N3C[C@@H](C)N[C@@H](C)C3)cccc21 [Example 100, 1-[(3-chloro-2-methylphenyl)sulfonyl]-4-[(3R,5S)-3,5-dimethylpiperazin-1-yl]-2-methyl-1H-benzimidazole] | 2.28 nM
13 | O=S(=O)(c1cccc2ccccc12)n1cnc2c(N3CCNCC3)cc(F)cc21 [Example 101, 6-fluoro-1-(naphthalen-1-ylsulfonyl)-4-piperazin-1-yl-1H-benzimidazole] | 1.33 nM
14 | O=S(=O)(c1ccccc1Cl)n1cnc2c(N3CCNCC3)cc(F)cc21 [Example 102, 1-[(2-chlorophenyl)sulfonyl]-6-fluoro-4-piperazin-1-yl-1H-benzimidazole] | 0.698 nM
15 | O=S(=O)(c1ccccc1)n1cnc2c(N3CCNCC3)cc(F)cc21 [Example 103, 6-fluoro-1-(phenylsulfonyl)-4-piperazin-1-yl-1H-benzimidazole] | 0.738 nM
16 | O=S(=O)(c1ccccc1)n1cnc2c(N3C[C@@H]4C[C@H]3CN4)cccc21 [Example 104, 4-[(1S,4S)-2,5-diazabicyclo[2.2.1]hept-2-yl]-1-(phenylsulfonyl)-1H-benzimidazole] | 44.7 nM
17 | O=S(=O)(c1cccc2ccccc12)n1cnc2c(N3C[C@@H]4C[C@H]3CN4)cccc21 [Example 105, 4-[(1S,4S)-2,5-diazabicyclo[2.2.1]hept-2-yl]-1-(naphthalen-1-ylsulfonyl)-1H-benzimidazole] | 7.55 nM
18 | O=S(=O)(c1ccccc1Cl)n1cnc2c(N3C[C@@H]4C[C@H]3CN4)cccc21 [Example 106, 1-[(2-chlorophenyl)sulfonyl]-4-[(1S,4S)-2,5-diazabicyclo[2.2.1]hept-2-yl]-1H-benzimidazole] | 5.3 nM
19 | O=S(=O)(c1cccc(F)c1)n1cnc2c(N3C[C@@H]4C[C@H]3CN4)cccc21 [Example 107, 4-[(1S,4S)-2,5-diazabicyclo[2.2.1]hept-2-yl]-1-[(3-fluorophenyl)sulfonyl]-1H-benzimidazole] | 22.1 nM
20 | Cc1c(Cl)cccc1S(=O)(=O)n1cnc2c(N3C[C@@H]4C[C@H]3CN4)cccc21 [Example 108, 1-[(3-chloro-2-methylphenyl)sulfonyl]-4-[(1S,4S)-2,5-diazabicyclo[2.2.1]hept-2-yl]-1H-benzimidazole] | 2.86 nM

Second part, the molecule after the results:

Row | Ki | Compound
21 | 30.5 nM | Cc1nc2c(N3C[C@@H]4C[C@H]3CN4)cccc2n1S(=O)(=O)c1ccccc1 [Example 109, 4-[(1S,4S)-2,5-diazabicyclo[2.2.1]hept-2-yl]-2-methyl-1-(phenylsulfonyl)-1H-benzimidazole]
22 | 9.92 nM | Cc1nc2c(N3C[C@@H]4C[C@H]3CN4)cccc2n1S(=O)(=O)c1cccc2ccccc12 [Example 110, 4-[(1S,4S)-2,5-diazabicyclo[2.2.1]hept-2-yl]-2-methyl-1-(naphthalen-1-ylsulfonyl)-1H-benzimidazole]
23 | 21 nM | Cc1nc2c(N3C[C@@H]4C[C@H]3CN4)cccc2n1S(=O)(=O)c1ccccc1Cl [Example 111, 1-[(2-chlorophenyl)sulfonyl]-4-[(1S,4S)-2,5-diazabicyclo[2.2.1]hept-2-yl]-2-methyl-1H-benzimidazole]
24 | 39.9 nM | Cc1nc2c(N3C[C@@H]4C[C@H]3CN4)cccc2n1S(=O)(=O)c1cccc(F)c1 [Example 112, 4-[(1S,4S)-2,5-diazabicyclo[2.2.1]hept-2-yl]-1-[(3-fluorophenyl)sulfonyl]-2-methyl-1H-benzimidazole]
25 | 14.1 nM | Cc1c(Cl)cccc1S(=O)(=O)n1c(C)nc2c(N3C[C@@H]4C[C@H]3CN4)cccc21 [Example 113, 1-[(3-chloro-2-methylphenyl)sulfonyl]-4-[(1S,4S)-2,5-diazabicyclo[2.2.1]hept-2-yl]-2-methyl-1H-benzimidazole]
26 | 1.38 nM | CCC1CN(c2cccc3c2ncn3S(=O)(=O)c2cccc3ccccc23)CCN1 (stereo not shown) [Example 118, 4-(3-ethylpiperazin-1-yl)-1-(1-naphthylsulfonyl)-1H-benzimidazole]
27 | 0.484 nM | CCC1CN(c2cccc3c2ncn3S(=O)(=O)c2ccccc2)CCN1 (stereo not shown) [Example 119, 4-(3-ethylpiperazin-1-yl)-1-(phenylsulfonyl)-1H-benzimidazole]
28 | 6.11 nM | CC(C)C1CN(c2cccc3c2ncn3S(=O)(=O)c2ccccc2)CCN1 (stereo not shown) [Example 120, 4-(3-isopropylpiperazin-1-yl)-1-(phenylsulfonyl)-1H-benzimidazole]
29 | 0.952 nM | CC(C)C1CN(c2cccc3c2ncn3S(=O)(=O)c2cccc3ccccc23)CCN1 (stereo not shown) [Example 121, 4-(3-isopropylpiperazin-1-yl)-1-(1-naphthylsulfonyl)-1H-benzimidazole]
30 | 1.08 nM | CC(C)C1CN(c2cccc3c2ncn3S(=O)(=O)c2ccccc2Cl)CCN1 (stereo not shown) [Example 122, 1-[(2-chlorophenyl)sulfonyl]-4-(3-isopropylpiperazin-1-yl)-1H-benzimidazole]
31 | 34.3 nM | CC(C)CC1CN(c2cccc3c2ncn3S(=O)(=O)c2ccccc2)CCN1 (stereo not shown) [Example 123, 4-(3-isobutylpiperazin-1-yl)-1-(phenylsulfonyl)-1H-benzimidazole]
32 | 8.32 nM | CC(C)CC1CN(c2cccc3c2ncn3S(=O)(=O)c2cccc3ccccc23)CCN1 (stereo not shown) [Example 124, 4-(3-isobutylpiperazin-1-yl)-1-(1-naphthylsulfonyl)-1H-benzimidazole]
33 | 4.98 nM | CC(C)CC1CN(c2cccc3c2ncn3S(=O)(=O)c2ccccc2Cl)CCN1 (stereo not shown) [Example 125, 1-[(2-chlorophenyl)sulfonyl]-4-(3-isobutylpiperazin-1-yl)-1H-benzimidazole]
34 | 1.05 nM | Cc1nc2c(N3CCN[C@@H](C)C3)cccc2n1S(=O)(=O)c1cccc2c(Cl)cccc12 [Example 126, 1-[(5-chloro-1-naphthyl)sulfonyl]-2-methyl-4-[(3S)-3-methylpiperazin-1-yl]-1H-benzimidazole]
35 | 8.38 nM | Cc1nc2c(N3CCN[C@H](C)C3)cccc2n1S(=O)(=O)c1cccc2c(Cl)cccc12 [Example 127, 1-[(5-chloro-1-naphthyl)sulfonyl]-2-methyl-4-[(3R)-3-methylpiperazin-1-yl]-1H-benzimidazole]
36 | 0.931 nM | CC1CN(c2cccc3c2ncn3S(=O)(=O)c2ccccc2)CCN1 (stereo not shown) [Example 128, 4-(3-methylpiperazin-1-yl)-1-(phenylsulfonyl)-1H-benzimidazole]
37 | 0.051 nM | CC1CN(c2cccc3c2ncn3S(=O)(=O)c2cccc3ccccc23)CCN1 (stereo not shown) [Example 129, 4-(3-methylpiperazin-1-yl)-1-(1-naphthylsulfonyl)-1H-benzimidazole]
